In paper PMC5805526, “ZB716, a steroidal selective estrogen receptor degrader (SERD), is orally efficacious in blocking tumor growth in mouse xenograft models” (Oncotarget, 2018):

Tests used:
ERα = test system: ERα; design: method as in PMID 27529700; conditions: read-out: binding affinity to ERα, EC50; cited from earlier work
[1] = Tolerability in tumor bearing animals; conditions: all tumor bearing animals, different oral doses
Procedure: Four to six weeks old female ovariectomized Nu/Nu mice were purchased from Charles River Laboratories (Wilmington, MA). MCF-7 cells were cultured and harvested in the exponential growth phase using a PBS/EDTA solution. The animals were injected bilaterally in the mammary fat pad (MFP) with 5×10^6 viable cells suspended in 50 μL sterile PBS mixed with 100 μL Matrigel (reduced factor; BD Biosciences, Bed- ford, MA). 17b-Estradiol pellets (0.72 mg, 60 day release; Innovative Research of America, Sarasota, FL) were implanted subcutaneously in the lateral area of the neck using a precision trochar (10 gages) at the time of cell injection. Tumors were allowed to form and at day 15 post cell injection […]. […] Tumor sizes were monitored and recorded every other day for three weeks of treatment duration.
In a patient-derived xenograft (PDX) mouse model in which the primary tumor donated by a postmenopausal patient was engrafted in NOD scid gamma (NSG™) mice (TM00386 PDX model, Jackson Lab). […] Tumor sizes were monitored and recorded every other day for three weeks of treatment duration.

mutant ER (Y537S ESR1) [2] = assay: ER downregulation in T47D/Y537S cells (Wes Simple Western); assay type: cell-based; conditions: T47D/Y537S
Description: (§1) IC50 values were obtained from dose-response curves for all treatments.

mutant ER (Y537S ESR1) [3] = biological target: T1, mutant ER (Y537S ESR1) (Homo sapiens, UniProt P03372, Y537S); assay: as above; assay type: cell-based; conditions: four hours treatment, ERα normalized to actin; read-out: IC50, ER downregulation in T47D/Y537S cells
T1 construct: added to the C terminus of full-length wild-type and mutant (Y537S) ESR1 by PCR amplification; expressed in transfected cells; host or cells: T47D, lentiviral transduction with pFLRu-FH and puromycin selection
T1 sequence (P03372 1-595 Y537S): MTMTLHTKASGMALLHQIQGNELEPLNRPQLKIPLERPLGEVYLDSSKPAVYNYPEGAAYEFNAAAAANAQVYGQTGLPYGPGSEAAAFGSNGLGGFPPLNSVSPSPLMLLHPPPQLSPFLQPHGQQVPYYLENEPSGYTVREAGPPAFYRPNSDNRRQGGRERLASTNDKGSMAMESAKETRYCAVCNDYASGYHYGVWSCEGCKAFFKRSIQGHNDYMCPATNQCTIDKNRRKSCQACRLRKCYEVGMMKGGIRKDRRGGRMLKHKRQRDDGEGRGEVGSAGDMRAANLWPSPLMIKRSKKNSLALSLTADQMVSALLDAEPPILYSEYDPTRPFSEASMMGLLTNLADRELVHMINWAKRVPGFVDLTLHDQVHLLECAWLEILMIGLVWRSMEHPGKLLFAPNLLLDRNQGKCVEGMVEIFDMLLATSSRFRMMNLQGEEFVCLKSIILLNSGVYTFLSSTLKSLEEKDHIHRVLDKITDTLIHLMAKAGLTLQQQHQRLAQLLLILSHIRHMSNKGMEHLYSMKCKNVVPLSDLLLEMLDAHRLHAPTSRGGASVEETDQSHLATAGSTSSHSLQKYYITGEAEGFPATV
Description: as §1

[4] = design: method as in PMID 27529700; conditions: mice; cited from earlier work
[5] = test system: MCF-7 human breast cancer xenograft; assay: Efficacy in MCF-7 xenograft tumor model; assay type: in vivo, Nu/Nu mice; conditions: ZB716 at both 10 mg/kg and 30 mg/kg by oral gavage, three weeks
Procedure: Four to six weeks old female ovariectomized Nu/Nu mice were purchased from Charles River Laboratories (Wilmington, MA). MCF-7 cells were cultured and harvested in the exponential growth phase using a PBS/EDTA solution. The animals were injected bilaterally in the mammary fat pad (MFP) with 5×10^6 viable cells suspended in 50 μL sterile PBS mixed with 100 μL Matrigel (reduced factor; BD Biosciences, Bed- ford, MA). 17b-Estradiol pellets (0.72 mg, 60 day release; Innovative Research of America, Sarasota, FL) were implanted subcutaneously in the lateral area of the neck using a precision trochar (10 gages) at the time of cell injection. Tumors were allowed to form and at day 15 post cell injection mice. […] Tumor sizes were monitored and recorded every other day for three weeks of treatment duration.

[6] = test system: T47D/Y537S breast cancer cells; assay: T47D/Y537S ESR1 mutant cell growth inhibition; assay type: cell-based; conditions: Homo sapiens, 120 h, 5 days treatment
Description: Wild-type ESR1, the Y537S ESR1 mutant were fused to a FLAG tag at their C-termini and cloned into the lentiviral vector pFLRu-FH [30]. Y537S mutation was first introduced into ESR1 using the QuikChange II XL Site-Directed Mutagenesis Kit (Agilent) with an ESR1-encoding plasmid (Accession number NM_000125.1, GeneCopoeia Inc.) as the template. […] To make lentiviral particles, pFLRu-FH vector DNAs (encoding ESR1(wt) and ESR1(Y537S)) were cotransfected with the packaging plasmids into HEK293T cells using Fugene 6 (Roche). At 48 hours post transfection, culture media containing different viruses were added to T47D cells in the presence of polybrene followed by 3-day puromycin selection for stable expression.
Viable cell numbers were counted with a Z Series Coulter Counter instrument (Beckman-Coulter) following manufacturer's instructions. […] IC50 values were obtained from dose-response curves for all treatments.

For `C[C@]12CC[C@@H]3c4ccc(B(O)O)cc4C[C@@H](CCCCCCCCC[S+]([O-])CCCC(F)(F)C(F)(F)F)[C@H]3[C@@H]1CC[C@@H]2O` (some centres unmarked) [ZB716], the EC50 (ERα) is given as 4.1 nM, the animal body weights [1] is given as “no significant loss or increase of animal body weights” and the “toxicities in the entire course of treatment” value [1] is given as “no apparent toxicities were observed”. The “drug concentration for 50% downregulation of mutant ER relative to wild type” value (mutant ER (Y537S ESR1) [2]) was “about 10 times”, the DC50 (mutant ER (Y537S ESR1) [3]) was 24 nM and the “plasma peak concentration after single-dose oral gavage relative to same-dose fulvestrant s.c.” value [4] was “over 10 times”. For the same compound, the “tumor growth in MCF-7 xenograft” value [5] was “complete blockage of tumor growth” and the IC50 [6] was 24.4 nM.
